Measured values reported in patent EP3322687B1, “2-BENZYL-INDANONE COMPOUNDS AS ANTICANCER AGENT AND A PROCESS FOR PREPARATION THEREOF” (Council of Scientific and Industrial Research, priority 2015, dated 2017).
“And” between values parts separate entries of the source, which are not always exact repeats. Identical values can stand only once. Like-named read-outs stand apart in the source and are kept apart here.

Tests used:
Ehrlich Tumor (solid) = assay type: in vivo, Swiss mice
Procedure: Ehrlich ascites carcinoma (EAC) cells were collected from the peritoneal cavity of the Swiss mice harbouring 8-10 days old ascitic tumor. 1x10^7 EAC cells were injected intramuscularly in right thigh of Swiss male mice selected for the experiment on day 0. The next day, animals were randomized and divided into different groups. Two treatment groups contained 7 animals each and one control group contained 10 animals. The first treatment group was given compound 2 (20 mg/kg i/p) from day 1-9. The second treatment group was treated with 5-fluorouracil (22 mg/kg, i.p) from day 1-9 and it served as positive control. The control group was similarly administered normal saline (0.2 ml, i.p.) from day 1-9. On day 9 & 13, tumor bearing thigh of each animal was shaved and longest and shortest diameters of the tumor were measured with the help of vernier caliper. Tumor weight of each animal was calculated using the following formula. Tumor weight (mg) = (Length(mm) × ([width(mm)])^2)/(2) [formula]
The percent tumor growth inhibition was calculated on day 13 by comparing the average values of treated groups with that of control group. Tumor growth in saline treated control animals was taken to be 100%. Table 6. In-vivo anticancer activity of 2 against Ehrlich ascites carcinoma (solid)

[1] = test system: Ehrlich Ascites Carcinoma (EAC); assay type: in vivo, Swiss mice; settings: for % Tumor cell growth: 20 mg/kg i/p day 1-9, Day 12, control = 100; for Mortality: 20 mg/kg i/p day 1-9, Day 12, dead/total animals
Procedure: Ehrlich ascites carcinoma (EAC) cells were collected from the peritoneal cavity of the Swiss mice harbouring 8-10 days old ascitic tumor. 1x10^7 EAC cells were injected intraperitoneally in Swiss mice selected for the experiment on day 0. The next day, animals were randomized and divided into different groups. The treatment groups contained 7 animals each and control group contained 10 animals. The treatment group was treated with 20 mg/kg of Compound 2 intra-peritoneally from day 1-9. One more of the treatment group received 5-fluorouracil (20 mg/kg, i.p) and it served as positive control. The tumor bearing control group was similarly administered normal saline (0.2 ml, i.p.). On day 12, animals were sacrificed and ascitic fluid was collected from peritoneal cavity of each mouse for the evaluation of tumor growth. Percent tumor growth inhibition was calculated based on the total number of tumor cells present in the peritoneal cavity as on day 12 of the experiment using the following formula. Percent tumor growth inhibition = (Av.no.of cells in control group−Av.no.of cells in treated group)/(Av.no.of cells in control group) × 100 [formula]

Hela (Cervix) = assay: Sulforhodamine B cytotoxicity assay; assay type: cell-based; settings: Homo sapiens, Concentration 20 µM
Procedure: (§1) The benzyl compounds were evaluated by Sulforhodamine B Assay as per reported method [Skehan etal., J. Natl. Cancer Inst.1990, 82, 1107]. The human cancer cell lines procured from National Cancer Institute, Frederick, U. S. A. were used in present study. Cells were grown in tissue culture flasks in complete growth medium (RPMI-1640 medium with 2 mM glutamine, pH 7.4 supplemented with 10% fetal bovine serum, 100 µg/ml streptomycin and 100 units/ml penicillin) in a carbon dioxide incubator (37°C, 5% CO2, 90% RH). The cells at subconfluent stage were harvested from the flask by treatment with trypsin (0.05% in PBS (pH 7.4) containing 0.02% EDTA). Cells with viability of more than 98%, as determined by trypan blue exclusion, were used for determination of cytotoxicity. The cell suspension required concentration of cells was prepared in complete growth medium. Stock solution of 2x10^-2 M of compounds were prepared in DMSO and further dilution was carried out complete growth medium containing 50µg/ml of gentamycin to obtained working test solution of required concentration. In vitro cytotoxicity against various human cancer cell lines was determined using 96-well cell culture plates. The 100µl of cell suspension was added to each well of the 96-well cell culture plates. The cells were allowed to grow in CO2 incubator (37°C, 5% CO2, 90% RH) for 24 hours. The test materials in complete growth medium (100 µl) were added after 24 hours incubation to the wells containing cell suspension. The plates were further incubated for 48 hours (37°C in an atmosphere of 5% CO2 and 90% relative humidity) in a carbon dioxide incubator after addition of test material and then the cell growth was stopped by gently layering trichloroacetic acid (50% TCA, 50 µl) on top of the medium in all the wells. The plates were incubated at 4°C for one hour to fix the cells attached to the bottom of the wells. The liquid of all the wells was gently pipetted out and discarded. The plates were washed five times with distilled water to remove TCA, growth medium low molecular weight metabolites, serum proteins etc. and air - dried. Cell growth was measured by staining with sulforhodamine B dye. The adsorbed dye was dissolved in Tris-HCl Buffer (100 µl/well, 0.01M, pH 10.4) and plates were gently stirred for 10 minutes on a mechanical stirrer. The optical density (OD) was recorded on ELISA reader at 540nm. Paclitaxel (Taxol), and 5-Fluorouracil were used as positive controls (Standard drugs).

HCT-116 (Colon) = assay: Sulforhodamine B cytotoxicity assay; assay type: cell-based; settings: Homo sapiens, HCT-116; for IC50: SRB, 48 hours incubation, read-out: Human cancer cell lines IC50 HCT-116 (Colon)
Procedure: as §1

T-47D (Breast cancer) = assay: Sulforhodamine B cytotoxicity assay; assay type: cell-based; settings: Homo sapiens, T47D; for IC50: SRB, 48 hours incubation, read-out: Human cancer cell lines IC50 T-47D (Breast cancer)
Procedure: as §1

THP-1 (Leukemia) = assay: Sulforhodamine B cytotoxicity assay; assay type: cell-based; settings: Homo sapiens, THP-1; for IC50: SRB, 48 hours incubation, read-out: Human cancer cell lines IC50 THP-1 (Leukemia)
Procedure: as §1

MCF-7 (Breast cancer) = assay: Sulforhodamine B cytotoxicity assay; assay type: cell-based; settings: Homo sapiens, MCF7; for IC50: SRB, 48 hours incubation, read-out: Human cancer cell lines IC50 MCF-7 (Breast cancer)
Procedure: as §1

A549 (Lung) = assay: Sulforhodamine B cytotoxicity assay; assay type: cell-based; settings: Homo sapiens, A549; for IC50: SRB, 48 hours incubation, read-out: Human cancer cell lines IC50 A549 (Lung)
Procedure: as §1

tubulin protein = assay type: biochemical; settings: read-out: Tubulin polymerisation inhibition IC50
Procedure: The tubulin polymerization experiment was performed using 'assay kit'(Cytoskeleton USA) following manufacturer's protocol based on the procedure described by of Shelanski et al, (1973) and Lee et al. (1977). Briefly, tubulin protein (3mg/mL) in tubulin polymerization buffer (80 mM PIPES, pH 6.9, 2 mM MgCl2, 0.5 mM EGTA, 1 mM GTP and 15% glycerol) was placed in prewarmed 96-well microtiter plates at 37° C in the presence of test compounds with variable concentrations. All samples were mixed well and polymerization was monitored kinetically at 340 nm every min for 1h using a Spectramax plate reader. The IC50 value was determined from dose-dependent analysis and is defined as the concentration that inhibits the rate of polymerization by 50%. Podophyllotoxin was used as standard tubulin polymerisation inhibitor as positive control.

## O=c1[nH]cc(F)c(=O)[nH]1 [5-Fluorouracil]
Ehrlich Tumor (solid); 22 mg /Kg i/p day 1-9, Day 13
  Day 13 Av. Tumor weights: 842.85 ± 129.92 mg
Ehrlich Tumor (solid); 22 mg /Kg i/p day 1-9, day 13
  %Tumor Growth Inhibition: 59.07%
Ehrlich Tumor (solid); 22 mg /Kg i/p day 1-9, dead/total animals
  Mortality: 0/7
[1]; 20 mg/kg i/p day 1-9, Day 12
  %Tumor Growth Inhibition: 95.4%
  Av, Volume of ascitic fluid: 0.7 mL
  Av. No. of tumor cells: 6.33 x 10^7
  Av. Weight of ascitic fluid: 0.46 g
[1]
  % Tumor cell growth: 4.6%
  Mortality: 0/7
Hela (Cervix)
  inhibition at 20 µM: 70%
HCT-116 (Colon); Concentration 20 µM
  inhibition at 20 µM: 88%
T-47D (Breast cancer); Concentration 20 µM
  inhibition at 20 µM: 60%
THP-1 (Leukemia); Concentration 20 µM
  inhibition at 20 µM: 90%
MCF-7 (Breast cancer); Concentration 20 µM
  inhibition at 20 µM: 50%
A549 (Lung); Concentration 20 µM
  inhibition at 20 µM: 54%

## COc1cc(C2c3c(cc(OC)c(OC)c3OC)C(=O)C2Cc2ccc(F)cc2)cc(OC)c1OC (centres unmarked) [Compound 4, 2-(4"-fluorobenzyl)-3-(3',4',5'-trimethoxyphenyl)-4,5,6-trimethoxy-indan-1-one]
HCT-116 (Colon)
  IC50: 22 µM
T-47D (Breast cancer)
  IC50: 36 µM
THP-1 (Leukemia)
  IC50: 55 µM
MCF-7 (Breast cancer)
  IC50: 45 µM
A549 (Lung)
  IC50: 24 µM

## COc1ccc(CC2C(=O)c3cc(OC)c(OC)c(OC)c3C2c2cc(OC)c(OC)c(OC)c2)c(OC)c1 (centres unmarked) [Compound 5, 2-(2",4"-dimethoxybenzyl)-3-(3',4',5'-trimethoxyphenyl)-4,5,6-trimethoxy-indan-1-one]
HCT-116 (Colon)
  IC50: 4 µM
T-47D (Breast cancer)
  IC50: 12 µM
THP-1 (Leukemia)
  IC50: 1 µM
MCF-7 (Breast cancer)
  IC50: 12 µM
A549 (Lung)
  IC50: 1 µM

## COc1cc(C2C(=Cc3ccc4c(c3)OCO4)C(=O)c3cc(OC)c(OC)c(OC)c32)cc(OC)c1OC (centres unmarked) [Compound 12, 2-benzo[1,3]dioxo-5-ylmethylene-4,5,6-trimethoxy-3-(3,4,5-trimethoxyphenyl)-indan-1-one]
Ehrlich Tumor (solid); 20 mg/kg i/p day 1-9, Day 13
  Day 13 Av. Tumor weights: 1319.64 ± 56.46 mg
Ehrlich Tumor (solid); 20 mg/kg i/p day 1-9, day 13
  %Tumor Growth Inhibition: 35.9% and 35.91%
Ehrlich Tumor (solid); 20 mg/kg i/p day 1-9, dead/total animals
  Mortality: 0/7
Ehrlich Tumor (solid); 20 mg/kg i/p day 1-9, male Swiss mice, Day 13
  Day 13 Av. Body weights: 23.71 g
Ehrlich Tumor (solid); 20 mg/kg i/p day 1-9, male Swiss mice, day 1
  Av. Body weights (g) of animals on days 1: 21.42 g
Tubulin protein; tubulin 3mg/mL, 37° C, 340 nm, 1h
  IC50: 0.63 µM
[1]; 20 mg/kg i/p day 1-9, Day 12
  %Tumor Growth Inhibition: 45.5% and 45.48%
  Av, Volume of ascitic fluid: 6.11 mL
  Av. Weight of ascitic fluid: 5.88 g
[1]
  % Tumor cell growth: 54.52%
  Mortality: 0/7
[1]; 20 mg/kg i/p day 1-9, EAC-bearing female Swiss mice, Day 1
  Body weight Day 1: 21.42 g
[1]; 20 mg/kg i/p day 1-9, EAC-bearing female Swiss mice, Day 5
  Body weight Day 5: 22.85 g
[1]; 20 mg/kg i/p day 1-9, EAC-bearing female Swiss mice, Day 9
  Body weight Day 9: 22.42 g
[1]; 20 mg/kg i/p day 1-9, EAC-bearing female Swiss mice, Day 12
  Body weight Day 12: 23.16 g
HCT-116 (Colon)
  IC50: 0.1 µM
THP-1 (Leukemia)
  IC50: 4.9 µM
MCF-7 (Breast cancer)
  IC50: 0.01 µM
A549 (Lung)
  IC50: 11 µM

## CC(=O)O[C@H]1C(=O)[C@@]2(C)[C@H]([C@H](OC(=O)c3ccccc3)[C@]3(O)C[C@H](OC(=O)[C@H](O)[C@@H](NC(=O)c4ccccc4)c4ccccc4)C(C)=C1C3(C)C)[C@]1(OC(C)=O)CO[C@@H]1C[C@@H]2O [Paclitaxel, reference compound]
HCT-116 (Colon); Concentration 1 µM
  inhibition at 1 µM: 45%
T-47D (Breast cancer); Concentration 1 µM
  inhibition at 1 µM: 78%
THP-1 (Leukemia); Concentration 1 µM
  inhibition at 1 µM: 60%
MCF-7 (Breast cancer); Concentration 1 µM
  inhibition at 1 µM: 77%
A549 (Lung); Concentration 1 µM
  inhibition at 1 µM: 88%
